SMILES strings stand for the structures. Where a SMILES comes first, the peptide text is derived from it.

HLA A*3001, sequence (P04439 25-365 limits assumed, stated change not applied): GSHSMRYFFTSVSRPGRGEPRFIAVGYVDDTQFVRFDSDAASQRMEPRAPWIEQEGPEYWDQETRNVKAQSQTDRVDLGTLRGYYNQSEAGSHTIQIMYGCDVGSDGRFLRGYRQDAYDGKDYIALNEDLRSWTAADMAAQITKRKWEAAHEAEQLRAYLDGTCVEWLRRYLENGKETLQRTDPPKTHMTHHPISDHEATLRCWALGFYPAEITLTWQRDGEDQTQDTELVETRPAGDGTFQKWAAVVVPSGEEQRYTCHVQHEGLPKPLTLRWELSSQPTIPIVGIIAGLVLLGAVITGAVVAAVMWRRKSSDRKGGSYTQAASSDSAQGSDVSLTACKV

The experiment has as its target HLA A*3001 (Homo sapiens, UniProt P04439, D140H/D185E/E176W/F33S/G80R/H175R/K168Q/R138E/R41S). The experiment in a line: biochemical. It counts as binding.
As for `CC(C)[C@H](NC(=O)[C@H](CCC(N)=O)NC(=O)[C@@H](NC(=O)[C@H](CCCNC(=N)N)NC(=O)[C@H](CCC(=O)O)NC(=O)[C@@H](NC(=O)[C@H](CCCNC(=N)N)NC(=O)[C@H](CO)NC(=O)[C@@H](N)CCCCN)C(C)C)C(C)C)C(=O)O` [3102.0075] (H-KSRVERVQV-OH), the half-inhibitory concentration (IC50) amounted to 11 nM. As for `CC[C@H](C)[C@H](NC(=O)[C@H](CC(N)=O)NC(=O)[C@@H](NC(=O)[C@@H](NC(=O)[C@H](Cc1ccccc1)NC(=O)[C@@H](NC(=O)[C@H](C)N)[C@@H](C)O)[C@@H](C)O)C(C)C)C(=O)N[C@@H](Cc1ccccc1)C(=O)N[C@@H](CCCCN)C(=O)O` [3102.0081] (H-ATFTVNIFK-OH), the figure is 3.1 nM.

As for `CC(C)C[C@H](NC(=O)[C@H](CCCNC(=N)N)NC(=O)[C@@H](NC(=O)[C@@H](N)CCCNC(=N)N)C(C)C)C(=O)N[C@@H](CCCNC(=N)N)C(=O)N[C@@H](Cc1ccc(O)cc1)C(=O)N[C@@H](CCCNC(=N)N)C(=O)N[C@@H](CO)C(=O)NCC(=O)O` [3102.0082] (H-RVRLRYRSG-OH), the IC50 worked out at 13 nM. With `CC[C@H](C)[C@H](NC(=O)[C@@H](N)CCCNC(=N)N)C(=O)N[C@@H](CCCNC(=N)N)C(=O)N[C@@H](Cc1ccccc1)C(=O)N[C@@H](Cc1ccccc1)C(=O)N[C@@H](Cc1ccc(O)cc1)C(=O)N[C@@H](CCCNC(=N)N)C(=O)N[C@@H](CCCCN)C(=O)N[C@@H](CCCCN)C(=O)O` [3102.0083] (H-RIRFFYRKK-OH) the figure was 0.17 nM. As for `CC[C@H](C)[C@H](NC(=O)[C@H](CCSC)NC(=O)[C@H](CC(C)C)NC(=O)[C@@H]1CCCN1C(=O)[C@H](CCCNC(=N)N)NC(=O)[C@H](Cc1ccccc1)NC(=O)[C@@H](N)CCCCN)C(=O)N[C@@H](Cc1ccccc1)C(=O)N[C@@H](CCSC)C(=O)O` [3102.0084] (H-KFRPLMIFM-OH), the figure is 1.8 nM; as for `CC[C@H](C)[C@H](NC(=O)[C@@H](NC(=O)[C@H](Cc1c[nH]c2ccccc12)NC(=O)[C@H](Cc1ccccc1)NC(=O)CNC(=O)[C@H](CO)NC(=O)[C@H](CCCNC(=N)N)NC(=O)[C@H](Cc1ccc(O)cc1)NC(=O)[C@@H](N)CCCNC(=N)N)[C@@H](C)CC)C(=O)O` [3102.0085] (H-RYRSGFWII-OH), 8.7 nM; as for `CC[C@H](C)[C@H](NC(=O)[C@H](Cc1ccccc1)NC(=O)[C@H](Cc1ccccc1)NC(=O)[C@H](CO)NC(=O)[C@H](CC(N)=O)NC(=O)[C@H](CO)NC(=O)[C@H](CC(C)C)NC(=O)[C@@H](N)Cc1c[nH]cn1)C(=O)N[C@@H](CCCCN)C(=O)O` [3102.0086] (H-HLSNSFFIK-OH), 17 nM.

As for `CC[C@H](C)[C@H](NC(=O)[C@@H](NC(=O)[C@H](CC(N)=O)NC(=O)[C@H](CCCCN)NC(=O)[C@H](CO)NC(=O)[C@@H](N)CCCNC(=N)N)[C@@H](C)O)C(=O)N[C@H](C(=O)N[C@H](C(=O)N[C@@H](C)C(=O)O)[C@@H](C)CC)[C@@H](C)CC` [3102.0089] (H-RSKNTIIIA-OH), the half-maximal inhibitory concentration (IC50) turned out to be 0.16 nM. Against the preceding compound, the IC50 is about 110-fold lower. As for `CSCC[C@H](N)C(=O)N[C@@H](CCC(N)=O)C(=O)N[C@@H](CCCCN)C(=O)N[C@@H](CS)C(=O)N[C@@H](Cc1ccc(O)cc1)C(=O)N[C@@H](Cc1ccccc1)C(=O)N[C@@H](CO)C(=O)N[C@@H](Cc1ccc(O)cc1)C(=O)N[C@@H](CCCCN)C(=O)O` [3102.0090] (H-MQKCYFSYK-OH), the figure is 0.53 nM; as for `CC[C@H](C)[C@H](NC(=O)[C@@H](N)CCCCN)C(=O)N[C@@H](CCCCN)C(=O)N[C@@H](CO)C(=O)N[C@@H](CO)C(=O)N[C@@H](CC(N)=O)C(=O)N[C@@H](CO)C(=O)N[C@@H](CO)C(=O)N[C@@H](CCCCN)C(=O)O` [3102.0091] (H-KIKSSNSSK-OH), 15 nM.

In turn, `CC[C@H](C)[C@H](NC(=O)[C@H](CC(N)=O)NC(=O)CNC(=O)[C@H](CC(N)=O)NC(=O)[C@H](CCCCN)NC(=O)[C@@H](NC(=O)[C@H](C)N)[C@@H](C)O)C(=O)N[C@@H](Cc1ccccc1)C(=O)N[C@H](C(=O)O)C(C)C` [3102.0093] (H-ATKNGNIFV-OH) returned a half-inhibitory concentration (IC50) of 3.9 nM. Compared with the last compound, the IC50 is about 3.8-fold lower.

Take `CC[C@H](C)[C@H](NC(=O)[C@H](CC(C)C)NC(=O)[C@H](C)NC(=O)[C@@H](NC(=O)[C@H](Cc1c[nH]cn1)NC(=O)[C@@H](NC(=O)[C@@H](N)CCCNC(=N)N)[C@@H](C)O)[C@@H](C)O)C(=O)N[C@@H](Cc1ccccc1)C(=O)N[C@@H](CC(C)C)C(=O)O` [3102.0094] (H-RTHTALIFL-OH): it took 0.7 nM to reach half-maximal inhibition (IC50). As for `CC[C@H](C)[C@H](NC(=O)[C@@H](NC(=O)[C@H](CCCCN)NC(=O)[C@H](CO)NC(=O)[C@H](C)N)[C@@H](C)O)C(=O)N[C@@H](CC(N)=O)C(=O)N[C@@H](C)C(=O)N[C@@H](CC(C)C)C(=O)N[C@H](C(=O)O)C(C)C` [3102.0095] (H-ASKTINALV-OH), the figure is 0.18 nM; as for `CC[C@H](C)[C@H](NC(=O)[C@H](CCC(N)=O)NC(=O)[C@H](Cc1c[nH]cn1)NC(=O)[C@H](CO)NC(=O)[C@H](CCC(=O)O)NC(=O)[C@H](CCCCN)NC(=O)[C@@H](NC(=O)[C@@H](N)C(C)C)[C@@H](C)O)C(=O)N[C@@H](CCCCN)C(=O)O` [3102.0096] (H-VTKESHQIK-OH), 1.5 nM; as for `CC[C@H](C)[C@H](NC(=O)[C@@H](N)CCCCN)C(=O)N[C@@H](CCCCN)C(=O)N[C@@H](C)C(=O)NCC(=O)N1CCC[C@H]1C(=O)N[C@@H](CCCNC(=N)N)C(=O)N[C@@H](Cc1ccc(O)cc1)C(=O)N[C@H](C(=O)O)C(C)C` [3102.0097] (H-KIKAGPRYV-OH), 6.9 nM. As for `CC[C@H](C)[C@H](N)C(=O)N[C@@H](CO)C(=O)N[C@@H](CCCNC(=N)N)C(=O)N[C@@H](Cc1ccccc1)C(=O)N[C@@H](C)C(=O)N[C@@H](CC(N)=O)C(=O)N[C@@H](CC(C)C)C(=O)N[C@H](C(=O)N[C@@H](CCCCN)C(=O)O)[C@@H](C)CC` [3102.0098] (H-ISRFANLIK-OH), the figure is 13 nM; as for `CC[C@H](C)[C@H](NC(=O)[C@H](Cc1c[nH]cn1)NC(=O)[C@@H](NC(=O)[C@H](CC(N)=O)NC(=O)[C@H](CCCCN)NC(=O)[C@@H](NC(=O)[C@@H](N)CCCCN)C(C)C)C(C)C)C(=O)NCC(=O)NCC(=O)O` [3102.0099] (H-KVKNVHIGG-OH), 0.34 nM. With `CC[C@H](C)[C@H](NC(=O)[C@H](CCSC)NC(=O)[C@H](Cc1ccccc1)NC(=O)[C@H](CC(=O)O)NC(=O)[C@H](CC(N)=O)NC(=O)[C@H](CCCCN)NC(=O)[C@@H](NC(=O)[C@@H](N)Cc1c[nH]cn1)[C@@H](C)CC)C(=O)N[C@@H](CCCCN)C(=O)O` [3102.0101] (H-HIKNDFMIK-OH), inhibition was half-maximal at 1.6 nM (IC50). As to `CC(C)[C@H](NC(=O)[C@H](C)NC(=O)[C@H](Cc1ccccc1)NC(=O)[C@H](CO)NC(=O)[C@H](CS)NC(=O)[C@H](CCCNC(=N)N)NC(=O)[C@H](Cc1ccc(O)cc1)NC(=O)[C@@H](N)CCCNC(=N)N)C(=O)N[C@@H](C)C(=O)O` [3102.0102] (H-RYRCSFAVA-OH), half-maximal inhibition (IC50) required 0.0038 nM. As for `CC(C)C[C@H](NC(=O)[C@H](CO)NC(=O)[C@@H](N)CCCCN)C(=O)N[C@@H](Cc1ccc(O)cc1)C(=O)N[C@@H](CO)C(=O)N[C@@H](Cc1c[nH]cn1)C(=O)N[C@@H](CCC(N)=O)C(=O)N[C@@H](CC(C)C)C(=O)N[C@H](C(=O)O)C(C)C` [3102.0103] (H-KSLYSHQLV-OH), the figure is 12 nM.

By IC50 is commonly meant the concentration needed to halve the response being measured. Read a low IC50 as higher potency.

(Values after paper PMC2248166, “Quantitative peptide binding motifs for 19 human and mouse MHC class I molecules derived using positional scanning combinatorial peptide libraries” (Immunome Research, 2008).)
